Source: US6972296B2, “Carboxylic acid derivatives that inhibit the binding of integrins to their receptors” (Encysive Pharmaceuticals Inc., priority 1999, dated 2005)

Target: T1, α4β1 integrin (Homo sapiens, UniProt P05556+P13612)
T1 construct: endogenous in cells; host or cells: Ramos cells
Assay: Adhesion of calcein-labeled Ramos cells to CS1 (fibronectin) peptide conjugated ovalbumin
Assay type: cell-based
Details: Ramos cell adhesion to CS1 conjugated ovalbumin
Summary of the method: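 Calcein AM-labelled Ramos cells (2.5×10^5/well) with compound, up to 100 μM, added to plates coated with CS1 peptide–ovalbumin (0.5 μg/ml) and blocked with 3% BSA. Binding buffer TBS pH 7.5 with 1 mM each MgCl2, CaCl2, MnCl2; 30 min, 37 °C. After washes, adherent cells lysed and read fluorometrically; […].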

[1] = Table 5, dose required to give 50% inhibition
[2] = Table 7, dose required to give 50% inhibition

T1 sequence (P13612 34-1032): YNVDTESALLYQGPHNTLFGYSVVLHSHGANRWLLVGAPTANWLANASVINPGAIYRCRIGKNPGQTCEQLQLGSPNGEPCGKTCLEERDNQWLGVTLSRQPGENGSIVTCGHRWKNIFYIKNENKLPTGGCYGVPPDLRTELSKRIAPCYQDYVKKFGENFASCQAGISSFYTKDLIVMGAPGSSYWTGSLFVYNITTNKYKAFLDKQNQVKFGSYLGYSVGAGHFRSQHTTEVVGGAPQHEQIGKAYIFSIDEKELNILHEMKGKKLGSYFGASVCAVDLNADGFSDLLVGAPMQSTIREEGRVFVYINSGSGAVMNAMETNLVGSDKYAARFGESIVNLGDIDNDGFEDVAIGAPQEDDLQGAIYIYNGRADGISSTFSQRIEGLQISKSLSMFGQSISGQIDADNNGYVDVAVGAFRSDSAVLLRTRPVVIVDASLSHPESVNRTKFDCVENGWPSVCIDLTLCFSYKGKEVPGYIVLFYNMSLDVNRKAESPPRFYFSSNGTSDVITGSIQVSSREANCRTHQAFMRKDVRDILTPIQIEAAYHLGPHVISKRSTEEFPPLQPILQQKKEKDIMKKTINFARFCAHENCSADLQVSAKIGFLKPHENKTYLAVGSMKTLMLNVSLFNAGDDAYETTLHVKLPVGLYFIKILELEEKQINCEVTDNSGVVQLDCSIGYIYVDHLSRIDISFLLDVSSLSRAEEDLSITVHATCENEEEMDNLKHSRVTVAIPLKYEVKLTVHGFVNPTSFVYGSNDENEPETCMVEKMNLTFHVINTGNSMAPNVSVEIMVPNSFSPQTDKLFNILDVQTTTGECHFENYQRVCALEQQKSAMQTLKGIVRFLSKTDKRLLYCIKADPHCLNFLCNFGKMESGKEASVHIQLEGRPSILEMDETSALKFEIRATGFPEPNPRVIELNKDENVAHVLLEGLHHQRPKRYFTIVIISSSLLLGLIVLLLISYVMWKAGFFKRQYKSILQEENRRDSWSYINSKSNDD
T1 sequence (P05556 21-798): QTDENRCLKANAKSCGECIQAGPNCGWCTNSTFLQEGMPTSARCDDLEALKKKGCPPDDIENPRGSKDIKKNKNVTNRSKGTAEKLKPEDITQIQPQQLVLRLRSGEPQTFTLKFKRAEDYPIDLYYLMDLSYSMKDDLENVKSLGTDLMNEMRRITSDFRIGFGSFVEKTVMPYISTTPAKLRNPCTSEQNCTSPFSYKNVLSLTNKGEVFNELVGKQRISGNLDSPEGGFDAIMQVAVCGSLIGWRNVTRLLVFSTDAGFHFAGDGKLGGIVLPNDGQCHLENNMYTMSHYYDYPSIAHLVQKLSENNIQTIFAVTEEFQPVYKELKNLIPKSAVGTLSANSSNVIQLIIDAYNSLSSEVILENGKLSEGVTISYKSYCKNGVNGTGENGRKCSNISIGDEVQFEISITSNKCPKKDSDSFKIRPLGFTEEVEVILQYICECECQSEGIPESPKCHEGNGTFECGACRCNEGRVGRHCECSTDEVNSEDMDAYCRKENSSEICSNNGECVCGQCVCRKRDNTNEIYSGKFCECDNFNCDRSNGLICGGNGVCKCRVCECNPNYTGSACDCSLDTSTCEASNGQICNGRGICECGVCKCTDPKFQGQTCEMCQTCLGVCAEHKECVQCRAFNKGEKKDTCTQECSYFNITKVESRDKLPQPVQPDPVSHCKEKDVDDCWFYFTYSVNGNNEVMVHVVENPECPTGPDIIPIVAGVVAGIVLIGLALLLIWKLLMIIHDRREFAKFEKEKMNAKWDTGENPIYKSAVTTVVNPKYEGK

SMILES: Cc1ccc([C@H](CC(=O)O)NC(=O)Nc2c(O)c(C)cn(Cc3ccccc3Cl)c2=O)cc1 [(3S)-3-[({[1-(2-chlorobenzyl)-4-hydroxy-5-methyl-2-oxo-1,2-dihydropyridin-3-yl]amino}carbonyl)amino]-3-(4-methylphenyl)propanoic acid]
- IC50 [1]: 5 nM

SMILES: Cc1cc(C)cc(-c2cccc([C@H](CC(=O)O)NC(=O)Nc3c(O)c(C)cn(Cc4ccccc4Cl)c3=O)c2)c1
- IC50 [2]: 50 nM

SMILES: O=C(O)CC(NC(=O)Nc1c(O)ccn(Cc2ccccc2Cl)c1=O)c1cccc2ccccc12 (stereo not drawn)
- IC50 [1]: 200 nM

SMILES: CCOc1ccc([C@H](CC(=O)O)NC(=O)Nc2c(O)c(C)c(C)n(Cc3c(C)cccc3Cl)c2=O)cc1OCC
- IC50 [1]: 4 nM

SMILES: Cc1ccc([C@H](CC(=O)O)NC(=O)Nc2c(C)ccn(Cc3ccccc3F)c2=O)cc1
- IC50 (Table 3, 30 minutes at 37° C.): 20 nM

SMILES: CCCc1cn(Cc2ccccc2Cl)c(=O)c(NC(=O)N[C@@H](CC(=O)O)c2ccc(OCC)c(OCC)c2)c1O [(3S)-3-[({[1-(2-chlorobenzyl)-4-hydroxy-2-oxo-5-propyl-1,2-dihydropyridin-3-yl]amino}carbonyl)amino]-3-(3,4-diethoxyphenyl)propanoic acid]
- IC50 [1]: 5 nM

SMILES: Cc1ccc([C@H](CC(=O)O)NC(=O)Nc2c(O)c(C)cn(Cc3cc(OC(C)C)ccc3Cl)c2=O)cc1
- IC50 (Table 6, 30 minutes at 37° C.): 7 nM

SMILES: CCOc1ccc2cc([C@H](CC(=O)O)NC(=O)Nc3c(O)c4c(n(Cc5ccccc5Cl)c3=O)CCC4)ccc2c1
- IC50 [2]: 15 nM

SMILES: O=C(O)CC(NC(=O)Nc1cccn(Cc2ccccc2Cl)c1=O)c1ccc(Cl)c(Cl)c1 (stereo not drawn)
- IC50 (Table 4, 30 minutes at 37° C.): 1000 nM

SMILES: COc1ccc2cc([C@H](CC(=O)O)NC(=O)Nc3c(O)c(C)cn(Cc4ccccc4Cl)c3=O)ccc2c1
- IC50 (Table 6, 30 minutes at 37° C.): 5 nM

SMILES: CCOc1cccc(Cl)c1Cn1ccc(O)c(NC(=O)N[C@@H](CC(=O)O)c2ccc(C)cc2)c1=O
- IC50 (Table 6, 30 minutes at 37° C.): 7 nM

SMILES: CCOc1ccc(Cl)c(Cl)c1Cn1c2c(c(O)c(NC(=O)N[C@@H](CC(=O)O)c3cccc(OCC4CC4)c3)c1=O)CCC2
- IC50 [2]: 7 nM

SMILES: COc1ccc([C@H](CC(=O)O)NC(=O)Nc2c(O)ccn(Cc3ccccc3Cl)c2=O)c(C)c1C
- IC50 (Table 4, 30 minutes at 37° C.): 35 nM

SMILES: CCc1nn(Cc2ccccc2Cl)c(=O)c(NC(=O)N[C@@H](CC(=O)O)c2ccc(C)cc2)c1O
- IC50 [2]: 22 nM

SMILES: CCCOc1cccc(Cl)c1Cn1cc(C)c(O)c(NC(=O)N[C@@H](CC(=O)O)c2cccc(OCC)c2)c1=O
- IC50 [2]: 5 nM

SMILES: Cc1ccc([C@H](CC(=O)O)NC(=O)Nc2cccn(Cc3ccc(Cl)cc3Cl)c2=O)cc1
- IC50 (Table 4, 30 minutes at 37° C.): 400 nM

SMILES: Cc1cn(Cc2ccccc2Cl)c(=O)c(NC(=O)N[C@@H](CC(=O)O)c2cccc(C(F)F)c2)c1O [(3S)-3-{[({1-[(2-chlorophenyl)methyl]-4-hydroxy-5-methyl-2-oxo-1,2-dihydro-3-pyridinyl}amino)carbonyl]amino}-3-[3-(difluoromethyl)phenyl]propanoic acid]
- IC50 [2]: 20 nM

SMILES: Cc1ccc([C@H](CC(=O)O)NC(=O)Nc2cccn(Cc3cc(C)ccc3C)c2=O)cc1
- IC50 (Table 4, 30 minutes at 37° C.): 150 nM

SMILES: COc1ccc(C(CC(=O)O)NC(=O)Nc2c(O)ccn(Cc3ccccc3Cl)c2=O)c2ccccc12 (stereo not drawn)
- IC50 (Table 6, 30 minutes at 37° C.): 160 nM

SMILES: CSc1ccc(C(CC(=O)O)NC(=O)Nc2c(O)c(C)cn(Cc3ccccc3Cl)c2=O)cc1 (stereo not drawn)
- IC50 [2]: 15 nM

SMILES: COc1ccccc1Cn1ccc(O)c(NC(=O)N[C@@H](CC(=O)O)c2ccc(C)cc2)c1=O
- IC50 [1]: 80 nM

SMILES: CC1(C)Cc2cc([C@H](CC(=O)O)NC(=O)Nc3c(O)c4c(n(Cc5ccccc5Cl)c3=O)CCC4)ccc2O1
- IC50 [2]: 3 nM

SMILES: CCn1c2ccccc2c2cc([C@H](CC(=O)O)NC(=O)Nc3c(O)c4c(n(Cc5ccccc5Cl)c3=O)CCC4)ccc21
- IC50 [2]: 13 nM

SMILES: CCOc1cccc(Cl)c1Cn1c2c(c(O)c(NC(=O)N[C@@H](CC(=O)O)c3cccc(OC(C)C)c3)c1=O)CCC2
- IC50 [2]: 4 nM

SMILES: CCN(CC)c1cccc([C@H](CC(=O)O)NC(=O)Nc2c(O)c3c(n(Cc4c(C)cccc4Cl)c2=O)CCC3)c1
- IC50 [2]: 10 nM

SMILES: Cc1ccc([C@H](CC(=O)O)NC(=O)Nc2cccn(Cc3ccccc3O)c2=O)cc1
- IC50 [1]: 200 nM

SMILES: CCCOc1cccc([C@H](CC(=O)O)NC(=O)Nc2c(O)c3c(n(Cc4c(Cl)cccc4OCC)c2=O)CCC3)c1 [(3S)-3-[({[1-(2-chloro-6-ethoxybenzyl)-4-hydroxy-2-oxo-2,5,6,7-tetrahydro-1H-cyclopenta[b]pyridin-3-yl]amino}carbonyl)amino]-3-(3-propoxyphenyl)propanoic acid]
- IC50 [2]: 3 nM

SMILES: CCOc1cccc([C@H](CC(=O)O)NC(=O)Nc2c(O)c(C)cn(Cc3c(Cl)cccc3OCC(F)(F)F)c2=O)c1
- IC50 [2]: 4 nM

SMILES: Cc1cc(C(CC(=O)O)NC(=O)Nc2c(O)ccn(Cc3ccccc3Cl)c2=O)oc1C (stereo not drawn)
- IC50 (Table 6, 30 minutes at 37° C.): 115 nM

SMILES: Cc1ccc([C@H](CC(=O)O)NC(=O)Nc2c(Cl)ccn(Cc3ccccc3Cl)c2=O)cc1
- IC50 (Table 3, 30 minutes at 37° C.): 20 nM

SMILES: O=C(O)C[C@H](NC(=O)Nc1c(O)c2c(n(Cc3ccccc3Cl)c1=O)CCC2)c1cccc(OCC2CC2)c1 [(3S)-3-[({[1-(2-chlorobenzyl)-4-hydroxy-2-oxo-2,5,6,7-tetrahydro-1H-cyclopenta[b]pyridin-3-yl]amino}carbonyl)amino]-3-[3-(cyclopropylmethoxy)phenyl]propanoic acid]
- IC50 [2]: 9 nM

SMILES: Cc1ccc([C@H](CC(=O)O)NC(=O)Nc2c(O)ccn(Cc3cccc(Cl)c3)c2=O)cc1
- IC50 [1]: 15 nM

SMILES: Cc1cn(Cc2ccccc2Cl)c(=O)c(NC(=O)N[C@@H](CC(=O)O)c2ccc(OC3CC3)cc2)c1O
- IC50 [2]: 6 nM

SMILES: O=C(O)C[C@H](NC(=O)Nc1cccn(Cc2cccs2)c1=O)c1ccc(F)c(C(F)(F)F)c1
- IC50 (Table 4, 30 minutes at 37° C.): 350 nM

SMILES: CCCOc1cccc([C@H](CC(=O)O)NC(=O)Nc2c(O)ccn(Cc3ccccc3Cl)c2=O)c1
- IC50 [1]: 3 nM

SMILES: CCOc1cccc(Cl)c1Cn1c2c(c(O)c(NC(=O)N[C@@H](CC(=O)O)c3cccc(OCC4CC4)c3)c1=O)CCC2 [(3S)-3-[({[1-(2-chloro-6-ethoxybenzyl)-4-hydroxy-2-oxo-2,5,6,7-tetrahydro-1H-cyclopenta[b]pyridin-3-yl]amino}carbonyl)amino]-3-[3-(cyclopropylmethoxy)phenyl]propanoic acid]
- IC50 [2]: 4 nM

SMILES: Cc1ccc([C@H](CC(=O)O)NC(=O)Nc2cccn(Cc3ccccc3Cl)c2=O)cc1
- IC50 (Table 4, 30 minutes at 37° C.): 100 nM

SMILES: CCCc1cn(Cc2c(Cl)cccc2OC)c(=O)c(NC(=O)N[C@@H](CC(=O)O)c2cccc(OCC)c2)c1O
- IC50 (Table 6, 30 minutes at 37° C.): 7 nM

SMILES: CCOc1cc([C@H](CC(=O)O)NC(=O)Nc2c(O)c3c(n(Cc4ccccc4Cl)c2=O)CCC3)cc(Cl)c1OCC
- IC50 [2]: 3 nM

SMILES: Cc1ccc([C@H](CC(=O)O)NC(=O)Nc2c(O)c(C(C)C)cn(Cc3ccccc3Cl)c2=O)cc1
- IC50 (Table 6, 30 minutes at 37° C.): 60 nM

SMILES: Cc1ccc([C@H](CC(=O)O)NC(=O)Nc2c(CC(C)C)nc(C)n(Cc3ccccc3)c2=O)cc1 [(3S)-3-[({[2-methyl-4-(2-methylpropyl)-6-oxo-1-(phenylmethyl)-1,6-dihydro-5-pyrimidinyl]amino}carbonyl)amino]-3-(4-methylphenyl)propanoic acid]
- IC50 (Table 3, 30 minutes at 37° C.): 10 nM

SMILES: O=C(O)C[C@H](NC(=O)Nc1cccn(Cc2cccs2)c1=O)c1cccc(C(F)(F)F)c1
- IC50 (Table 4, 30 minutes at 37° C.): 2500 nM

SMILES: CCOc1cccc(Cl)c1Cn1cc(C)c(O)c(NC(=O)N[C@@H](CC(=O)O)c2ccc3ccn(C)c3c2)c1=O [(3S)-3-[({[1-(2-chloro-6-ethoxybenzyl)-4-hydroxy-5-methyl-2-oxo-1,2-dihydropyridin-3-yl]amino}carbonyl)amino]-3-(1-methyl-1H-indol-6-yl)propanoic acid]
- IC50 [2]: 3 nM

SMILES: Cc1ccc([C@H](CC(=O)O)NC(=O)Nc2c(C)ccn(Cc3ccc(Cl)cc3Cl)c2=O)cc1
- IC50 (Table 3, 30 minutes at 37° C.): 30 nM

SMILES: CCc1ccc([C@H](CC(=O)O)NC(=O)Nc2c(O)ccn(Cc3ccccc3Cl)c2=O)cc1CC
- IC50 [1]: 50 nM
